What was measured:
[1] = system: Human peripheral blood lymphocytes; test: Assay for identifying apoptotic cells, FACS of fresh lymphocytes; type: cell-based; design: unit not given here; conditions: for M1-2 / M1 / M2: Experiment No. 1; for M1 / M2 / UL / UR: mean of duplicates; for UL + UR / UL / UR: Experiment No. 2
Method: Human peripheral blood lymphocytes from healthy donors were separated using Ficoll-Isopaque gradient (1.077) (Pharmacia) and used immediately. Lymphocytes were cultured in 5% CO2 in air in RPMI 1640 medium supplemented with 10% fetal calf serum, 200 μg/ml L-glutamate, 50 μg/ml penicillin, 50 μg/ml streptomycin, 50 μg/ml glutamine and 5×10^−5 M 2-β mercaptoethanol. Increasing concentrations of IL2-Bax (insoluble fraction, 6M Gu-HCl treated) were added to the lymphocytes for 22 hr. Cells were then stained with:
A. Propidium Iodide (PI, 3.5 μg/ml)
B. Propidium Iodide with a detergent for measuring cell cycle (0.7 ml of the PI buffer: 50 μg/ml PI, 0.1% Nacitrate, 0.1% Triton×100, were added to a cell pellet of ˜10^6 cells). Cells were then analyzed by FACS.

HUT102 cells [2] = test: Assay for identifying apoptotic cells, FACS (PI fluorescence of nuclei); type: cell-based, human; conditions: highest concentration tested, overnight
Method: (§1) HUT102 cells (target T cells) and CEM cells (non-target T cells) were incubated overnight with increasing concentrations of IL2-Bax. The 200×g centrifuged cell pellet was fixed in 2 ml cold 70% ethanol at 4° C. for 60 min. The cells were then centrifuged, washed in 1 ml PBS and resuspended in 0.5 ml PBS. 0.5 ml RNAse (Type I-A, Sigma, St. Louis, Mo., 1 mg/ml in PBS) was added to the sample, followed by gentle mixing with 1 ml PI (Sigma, 100 μg/ml PBS) solution. The mixed cells were incubated in the dark at room temperature for 15 min. and kept at 4° C. in the dark until measured. The PI fluorescence of the individual nuclei was measured using FACS flow cytometer. The forward scatter and side scatter of particles were simultaneously measured. Cell debris were excluded from analysis by appropriately raising the forward scatter threshold (Nicoletti et al., 1991, J. Immunol. Meth. 139:271-279).

CEM cells [3] = test: as above; type: cell-based, human; conditions: CEM cells lacking IL2R expression; FIGS. 9A-9C
Method: as §1

HUT102 cells [4] = test: Cytotoxicity assay, [3H] leucine incorporation (inhibition of protein synthesis); type: cell-based, human; conditions: HUT102, IL2R-expressing; FIG. 5A
Method: (§2) Cells (10^4 in 0.2 ml culture medium) were seeded in 96-well microplates, followed by the addition of various concentrations of the chimeric protein (diluted with 0.25% BSA in PBS). After a 24 hour incubation, [^3H] leucine (2-5 uci/well) were added for 6-13 hr. The plates were then stored at −70° C. for several hours, followed by quick thawing at 37° C. This step was omitted with targets cells growing in suspension. The cells were harvested on filters and the incorporated radioactivity was measured with a β counter. Results were expressed as the percent incorporation of the control experiments in which the cells were not exposed to any protein. All assays were carried out in triplicates.
(§3) The cytotoxic activity of the IL2-Bax chimeric protein was tested on HUT102 and MT-1 cells (human T-cell lines), and 2B4 cells (mouse T-cells); all known to express the high affinity receptor for IL2, by a quantitative assay, in which inhibition of protein synthesis was measured. The soluble and insoluble fractions generated from treatment under three different conditions were tested in cytotoxicity assays as described by Lorberboum-Galski et al. (1988, J. Biol. Chem. 263:18650-18656). […] This may be attributed to the different number of IL2R expressed on each cell line. […]

MT-1 cells = test: as above; type: cell-based, human; conditions: MT-1, IL2R-expressing; FIG. 5A
Method: as §2, §3

Km3 = test: as above; type: cell-based, human; conditions: Km3, IL2R negative; FIG. 5B
Method: as §2
(§4) The effects of IL2-Bax were also tested on various IL2R negative cells: CEM cells (a human T-cell line lacking the IL2R) and Km3 (a human non-T, non-B stem cell line). […] Since the fraction treated with Gu-HCl was active without any non-specific cytotoxicity, this fraction was further used in subsequent experiments.

CEM cells [5] = test: as above; type: cell-based, human; conditions: lacking the IL2R, FIG. 5B
Method: as §2, §4

2B4 cells = test: as above; type: cell-based, mouse; conditions: 2B4, IL2R-expressing; FIG. 5A
Method: as §2, §3

C[C@@H]1C[C@H]2[C@@H]3CCC4=CC(=O)C=C[C@]4(C)[C@@]3(F)[C@@H](O)C[C@]2(C)[C@@]1(O)C(=O)CO [dexamethasone, reference compound]
M1-2 ([1]; dexamethasone (10^-7 M)): 6.7
M1 ([1]; dexamethasone (10^-7 M)): 9.5
M2 ([1]; dexamethasone (10^-7 M)): 2.8

IL2-Bax
Increase in the percentage of the apoptotic-cell population (sub-G1, M1) (HUT102 cells [2]): 3.6 fold
Increase in the apoptotic cell population (CEM cells [3]): did not show an increase in the apoptotic cell population
Cytotoxic activity (inhibition of protein synthesis) (HUT102 cells [4]): responsive to the chimeric protein in a dose dependent manner
Cytotoxic activity (inhibition of protein synthesis) (MT-1 cells): responsive to the chimeric protein in a dose dependent manner
M1-2 ([1]; 1 μg, 22 hr): 13.5
M1 ([1]; 1 μg, 22 hr): 17.5
M2 ([1]; 1 μg, 22 hr): 4
M1-2 ([1]; 5 μg, 22 hr): 20
M1 ([1]; 5 μg, 22 hr): 24.3
M2 ([1]; 5 μg, 22 hr): 4.3
M1-2 ([1]; 10 μg, 22 hr): 35
M1 ([1]; 10 μg, 22 hr): 42.1
M2 ([1]; 10 μg, 22 hr): 9.1
UL + UR ([1]; 1 μg, 22 hr): 10.54
UL ([1]; 1 μg, 22 hr): 4.98
UR ([1]; 1 μg, 22 hr): 5.56
UL + UR ([1]; 10 μg, 22 hr): 31.55
UL ([1]; 10 μg, 22 hr): 14.71
UR ([1]; 10 μg, 22 hr): 16.84
Cytotoxic activity (inhibition of protein synthesis) (Km3): unaffected
Cytotoxic activity (inhibition of protein synthesis) (CEM cells [5]): unaffected
Cytotoxic activity (inhibition of protein synthesis) (2B4 cells): responsive to the chimeric protein in a dose dependent manner
